Measured values reported in patent US8299046B2, “Synthetic triterpenoids and tricyclic-bis-enones for use in stimulating bone and cartilage growth” (Trustees of Dartmouth College, priority 2006, dated 2012).

Experiments:
[1] = test system: RAW cells; experiment: Inhibition of NO production in RAW cells; assay type: cell-based
[2] = test system: RMPI 8226 human myeloma cells; experiment: Proliferation of RMPI 8226 myeloma cells; assay type: cell-based
[3] = test system: U937 human leukemia cells; experiment: Proliferation of U937 leukemia cells; assay type: cell-based
[4] = test system: heme oxygenase-1 in U937 cells; experiment: Heme oxygenase-1 induction in U937 cells; assay type: cell-based, human
[5] = test system: heme oxygenase-1; experiment: In vivo assay of heme oxygenase-1 induction
[6] = test system: CD11b expression in U937 cells; experiment: CD11b expression in U937 cells; assay type: cell-based, human
[7] = test system: iNOS in RAW cells; experiment: iNOS in RAW cells stimulated with interferon-γ; assay type: cell-based
[8] = test system: MCF-7 breast cancer cell lines; settings: Honda et al., 2003; cited from earlier work
[9] = test system: neonatal murine calvarial bones; experiment: Neonatal murine calvarial bone formation assay; assay type: cell-based, ICR Swiss mice; settings: for alkaline phosphatase in the calvarial culture media: 4 and 7 days (FIGS. 2, 5, 8, 11); for cartilage formation: calvarial cultures, 7 days (FIGS. 3, 6, 9, 12); for new bone formation: calvarial organ culture, 7 days, 40, 200, 1000 nM (FIGS. 1, 4, 10)
Experimental: Neonatal murine calvarial bone formation assay. The technique for studying organ cultures of neonatal murine calvarial bones has been described in detail previously (Traianedes et al., 1999, Mundy et al., 1999). The bones were removed from the calvaria of 4-5 day old ICR Swiss mice, and then cultured in BGJ medium with 0.1% BSA for 7 Days using 4 calvarial bones per group triterpenoids in differing amounts were added for 7 days. Alkaline phosphatase was determined at 4 and 7 days and expressed as arbitrary units of alkaline phosphatase activity. At the end of the experiment the media was saved and assayed for the presence of alkaline phosphatase and the calvaria bones were then fixed overnight in 10% formalin, decalcified in 14% EDTA overnight and were then embedded in paraffin wax. Sections were cut, using a standard microtome, along the midline suture to reveal the sagittal suture and the region posterior to this suture. Four micrometer sections were taken initially and at two sequential […] depths. Sections were placed on coated glass slides (Superfrost plus, Fisher Scientific, Pittsburgh, Pa.) and stained with hematoxylin and eosin. The effects on bone formation were evaluated by morphologic assessment.
Imaging. Digital images across sections of the neonatal murine calvaria were taken from each group. Histomorphometric analysis was performed on these calvarial images using the Osteomeasure System (Osteometrics Inc., Atlanta, Ga.). The total and new bone area (expressed as mm^2×10^−3) was determined on all images across the calvarial section.

[10] = test system: SZP synthesis in superficial zone articular chondrocytes; experiment: Bovine calf stifle joint SZP assay; assay type: cell-based; settings: for SZP synthesis at lower concentrations: 0.01 to 1 nM; for SZP synthesis at higher concentrations / SZP synthesis at higher concentrations with concurrent TGF-β1: 100-1000 nM; for SZP synthesis at higher concentrations: Day 3 culture media; for SZP synthesis at higher concentrations with concurrent TGF-β1: concurrent TGF-β1 (4 pM)
Experimental: Bovine calf stifle joint SZP assay. Bovine calf stifle joints were dissected under aseptic conditions. The superficial zone of articular cartilage of femoral condyles (approximately 100 μm thickness) was harvested using a dermatome. The cartilage slices were digested with 0.2% collagenase P in culture medium. Isolated chondrocytes were plated in monolayer at a density of 1×10^5 cells/well (approximately 2.5×10^4 cells/cm^2) in 12-well culture plates and incubated at 37° C. in a moist atmosphere of 5% carbon dioxide and 95% air. Chondrocytes were cultured in D-MEM/F-12 containing 10% fetal bovine serum over night, and then the media were changed in serum-free D-MEM/F-12 supplemented with ITSL (insulin, transferrin, selenious acid, and linoleic acid). Both media contain 100 U/ml penicillin, 100 μg/ml streptomycin, 50 μg/ml ascorbate-2-phosphate, and 0.1% bovine serum albumin. After changing the media with serum into the serum-free chemically defined media, various concentration of synthetic triterpenoids were added into the cell culture. As most of SZP is secreted into the culture medium, supernatants were harvested as samples and the SZP synthesis was analyzed by SDS-PAGE and Western blotting using a monoclonal antibody S6.79, obtained from Rush Medical College, Chicago, Ill. SZP accumulation into the culture medium was also quantified by ELISA using purified SZP as standard. The accumulation of SZP into the culture media increased in a time-dependent manner (Day 1<Day 2<Day 3). Therefore the culture of media of Day 3 was used for all the studies.

[11] = test system: heme oxygenase-1; settings: Liby et al., 2005; cited from earlier work

Row | Compound | alkaline phosphatase in the calvarial culture media [9] | cartilage formation [9] | new bone formation [9] | SZP synthesis at lower concentrations [10] | SZP synthesis at higher concentrations [10] | SZP synthesis at higher concentrations with concurrent TGF-β1 [10] | further results
1 | CC1(C)C(=O)C(C#N)=CC2(C)C3=CC(=O)C(C#N)=C(C#C[Si](C)(C)C)C3CCC12 (racemic) [TBE-31] | – | – | – | – | – | – | potency for inhibition of NO production in RAW cells [1]: extremely potent at one nanomolar concentrations; potency for NO inhibition in RAW cells compared with CDDO and TP-225 ([1]; comparison): much higher than CDDO and equal to TP-225; proliferation of RMPI 8226 human myeloma cells [2]: inhibits proliferation; proliferation of U937 human leukemia cells [3]: inhibits proliferation; induction of heme oxygenase-1 in U937 cells [4]: potent inducer; potency in heme oxygenase-1 induction compared with CDDO and CDDO-Im ([5]; comparison): much higher than CDDO and equal to CDDO-Im; in vivo heme oxygenase-1 induction ([5]; oral): orally active; CD11b expression in U937 cells [6]: induces CD11b expression; potency for CD11b induction compared with CDDO and CDDO-Im ([6]; comparison): much higher than CDDO and CDDO-Im; iNOS in RAW cells [7]: inhibits iNOS
2 | CC1(C)C(=O)C(C#N)=C[C@]2(C)C3=CC(=O)C(C#N)=C[C@]3(C)CC[C@@H]12 [(−)-TBE-9] | – | – | – | – | – | – | activity against MCF-7 cell lines [8]: active
3 | CC1(C)CC[C@]2(C(=O)O)CC[C@]3(C)[C@H](C(=O)C=C4[C@@]5(C)C=C(C#N)C(=O)C(C)(C)[C@@H]5CC[C@]43C)[C@@H]2C1 [TP-151, 2-cyano-3,12-dioxooleane-1,9(11)-dien-28-oic acid] | increases | No evidence of cartilage formation | Significant increase | up-regulated SZP synthesis | down-regulated SZP synthesis in a dose-dependent manner | the same trend | –
4 | COC(=O)[C@]12CCC(C)(C)C[C@H]1[C@H]1C(=O)C=C3[C@@]4(C)C=C(C#N)C(=O)C(C)(C)[C@@H]4CC[C@@]3(C)[C@]1(C)CC2 [TP-155] | increases | Some evidence of cartilage formation was seen in these cultures (FIG. 3) however this was not significant | Significant increase | up-regulated SZP synthesis | down-regulated SZP synthesis in a dose-dependent manner | the same trend | –
5 | CC1(C)CC[C@]2(C(=O)n3ccnc3)CC[C@]3(C)[C@H](C(=O)C=C4[C@@]5(C)C=C(C#N)C(=O)C(C)(C)[C@@H]5CC[C@]43C)[C@@H]2C1 [TP-235] | no convincing change | No evidence of cartilage formation | – | no obvious effects | down-regulated SZP synthesis in a dose-dependent manner | the same trend | new bone formation at 40 nM ([9]; at 40 nM, 7 days (FIG. 7)): Significant increase; potency in heme oxygenase-1 induction assay (literature) [11]: highest potency amongst semi-synthetic triterpenoids
6 | CCNC(=O)[C@]12CCC(C)(C)C[C@H]1[C@H]1C(=O)C=C3[C@@]4(C)C=C(C#N)C(=O)C(C)(C)[C@@H]4CC[C@@]3(C)[C@]1(C)CC2 [TP-319] | dose responsive increases | clear evidence increases in cartilage formation | Some increases | no obvious effects | down-regulated SZP synthesis in a dose-dependent manner | the same trend | –
7 | TGF-β1: Recombinant human TGF-β1 | – | – | – | – | – | – | SZP synthesis (TGF-β1) ([10]; 0.4-120 pM): up-regulate SZP synthesis in a dose-dependent manner
